The results in this text go back to PubChem BioAssay (NCI).

Some test systems named below: K-562 leukemia; SK-OV-3 ovarian; SR leukemia; HCT-116 colon; M14 melanoma; HL-60(TB) leukemia; SK-MEL-5 melanoma; NCI-H522 lung; HCC-2998 colon; OVCAR-5 ovarian.
What all share (assay): growth of human tumour cells (NCI), 48 h

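Method: 48-hour compound exposure of cells in 96-well plates, five concentrations, linear interpolation of endpoints. The concentration for 50% growth inhibition is given as GI50. TGI marks complete inhibition of growth.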

On to `CC(=O)O[C@H](C[C@H](C(C)C)N(C)C(=O)[C@@H](NC(=O)[C@H]1CCCCN1C)C(C)C)c1cccc(C(=O)N[C@@H](Cc2ccccc2)C[C@H](C)C(=O)O)n1`, for which the GI50 was 0.0103 µM with K-562 leukemia; 0.0312 µM in the test on SK-OV-3 ovarian; 0.00429 µM in the test with SR leukemia; 0.0222 µM in the test on HCT-116 colon; 0.0237 µM in the test with M14 melanoma; 0.0069 µM in the test on HL-60(TB) leukemia. Also, the GI50 in the test with SK-MEL-5 melanoma was 0.0155 µM; with NCI-H522 lung, 0.0116 µM; in the test with HCC-2998 colon, 0.0544 µM; with OVCAR-5 ovarian, 0.248 µM. Moreover, the TGI is over 25 µM in the test with K-562 leukemia; over 25 µM in the test on SK-OV-3 ovarian; over 25 µM in the test with SR leukemia; over 8.59 µM in the test on HCT-116 colon; 0.0321 µM in the test on HL-60(TB) leukemia; 0.36 µM in the test with SK-MEL-5 melanoma. Moreover, the results for the TGI in the test on NCI-H522 lung, in the test with HCC-2998 colon and in the test on OVCAR-5 ovarian were 0.401 µM, over 25 µM and over 25 µM, respectively.
Regarding `C=Cc1c(C)c2cc3[nH]c(cc4nc(cc5nc(cc1[nH]2)C(C)=C5CCC(=O)N(CC)CC)C(CCC(=O)N(CC)CC)=C4C)c(C)c3C=C`, the TGI with K-562 leukemia, with SK-OV-3 ovarian, in the test on SR leukemia, in the test on HCT-116 colon, with M14 melanoma and in the test on HL-60(TB) leukemia was over 100 µM each time. Also, the TGI in the test on SK-MEL-5 melanoma, in the test on NCI-H522 lung, with HCC-2998 colon and in the test on OVCAR-5 ovarian was over 100 µM in each case.
Regarding `CC(C)=C1CCC(CN2CCOCC2)C1=O` (stereo not drawn), the TGI with K-562 leukemia was 6.33 µM; in the test on SK-OV-3 ovarian, over 100 µM; in the test on SR leukemia, 11.2 µM; in the test with HCT-116 colon, 15.8 µM; in the test on M14 melanoma, 14.6 µM; in the test with HL-60(TB) leukemia, 14 µM. Besides, the TGI in the test with SK-MEL-5 melanoma is 30.7 µM; in the test with NCI-H522 lung, 0.163 µM; in the test with HCC-2998 colon, 29.3 µM; in the test with OVCAR-5 ovarian, 32.5 µM.
`CC1(C)C(=O)C(=Cc2ccco2)C1=O`: the TGI in the test on K-562 leukemia, in the test with SK-OV-3 ovarian, with SR leukemia, in the test with HCT-116 colon, with M14 melanoma and in the test with HL-60(TB) leukemia was over 100 µM throughout. The TGI with SK-MEL-5 melanoma, in the test with NCI-H522 lung, in the test with HCC-2998 colon and in the test with OVCAR-5 ovarian was over 100 µM throughout.
For the compound `COc1ccc2nc3cccc([N+](=O)[O-])c3c(NCCNCCN(C)C)c2c1`, the GI50 in the test with K-562 leukemia is 0.0222 µM; with SK-OV-3 ovarian it was 0.279 µM; with SR leukemia it was 0.0329 µM; with HCT-116 colon, 0.25 µM; with M14 melanoma it was 0.0734 µM; in the test with HL-60(TB) leukemia, 0.0449 µM. The GI50 is 0.0325 µM in the test on SK-MEL-5 melanoma, 0.0102 µM in the test with NCI-H522 lung, 0.0269 µM in the test on HCC-2998 colon and 0.0375 µM in the test with OVCAR-5 ovarian. Further, the TGI came to 0.0987 µM in the test with K-562 leukemia; 1.06 µM in the test on SK-OV-3 ovarian; 12 µM with HCT-116 colon; 0.208 µM in the test on M14 melanoma; 0.352 µM with HL-60(TB) leukemia; 0.13 µM in the test on SK-MEL-5 melanoma. Also, the TGI in the test with NCI-H522 lung came out at 0.0184 µM; in the test on HCC-2998 colon, 0.115 µM; with OVCAR-5 ovarian, 0.467 µM.
`COc1cccc2nc3c(C(=O)NCCN(C)C)cccc3nc12`: the TGI in the test on K-562 leukemia was 25.2 µM; in the test with SK-OV-3 ovarian it was over 46.4 µM; with SR leukemia, over 37.9 µM; in the test with HCT-116 colon, 37 µM; with M14 melanoma, 36.3 µM; with HL-60(TB) leukemia it was 17.5 µM. The TGI in the test on SK-MEL-5 melanoma is 36.8 µM; in the test on NCI-H522 lung, over 44.1 µM; with HCC-2998 colon, 36.3 µM; with OVCAR-5 ovarian, 42.4 µM.
With `CCOC(=O)C#Cc1c(C(=O)OCC)nnn1[C@@H]1O[C@H](CO)[C@H]2OC3(CCCCC3)O[C@H]21`, the GI50 was 1.67 µM in the test with K-562 leukemia; 17.7 µM with SK-OV-3 ovarian; 1.63 µM in the test with SR leukemia; 1.92 µM in the test on HCT-116 colon; 2.67 µM in the test with M14 melanoma; 1.87 µM with HL-60(TB) leukemia. For the same compound, the GI50 with SK-MEL-5 melanoma was 13.7 µM; with NCI-H522 lung it was 1.96 µM; in the test on HCC-2998 colon, 18 µM; in the test with OVCAR-5 ovarian it was 8.09 µM. For the same compound, the TGI amounted to 7.97 µM in the test on K-562 leukemia; 33.3 µM in the test with SK-OV-3 ovarian; 4.64 µM in the test with SR leukemia; 3.48 µM in the test with HCT-116 colon; 7.6 µM with M14 melanoma; 5.88 µM in the test on HL-60(TB) leukemia. For the same compound, the TGI was found to be 26.6 µM in the test with SK-MEL-5 melanoma, 4.09 µM with NCI-H522 lung, 32.8 µM in the test with HCC-2998 colon and 22.6 µM in the test on OVCAR-5 ovarian.
For the compound `COc1cc2c3c(c1OC)C(=O)C=C3N(S(=O)(=O)c1ccc(C)cc1)CC2`, the TGI with K-562 leukemia, in the test with SK-OV-3 ovarian, with SR leukemia, in the test with HCT-116 colon, in the test with M14 melanoma and with HL-60(TB) leukemia was over 100 µM each time. The TGI with SK-MEL-5 melanoma is over 100 µM; in the test on NCI-H522 lung, 38.6 µM; with HCC-2998 colon it was over 100 µM; in the test with OVCAR-5 ovarian it was over 100 µM.
Regarding `CC/C(Cc1ccccc1)=C(/c1ccc(O)cc1)c1ccc(OCCN2CCCC2)cc1`, the GI50 in the test with K-562 leukemia was 1.2 µM; in the test with SK-OV-3 ovarian it was 1.74 µM; with SR leukemia it was 1.35 µM; in the test on HCT-116 colon it was 1.83 µM; with M14 melanoma it was 1.8 µM; in the test on HL-60(TB) leukemia, 1.9 µM. Also, the GI50 in the test on SK-MEL-5 melanoma is 1.7 µM; in the test with NCI-H522 lung, 1.89 µM; with HCC-2998 colon, 1.54 µM; with OVCAR-5 ovarian it was 1.86 µM. For the same compound, the TGI turned out to be 3.41 µM with K-562 leukemia; 3.32 µM with SK-OV-3 ovarian; 3.2 µM with SR leukemia; 3.3 µM with HCT-116 colon; 3.64 µM in the test with M14 melanoma; 3.84 µM with HL-60(TB) leukemia. Besides, the TGI with SK-MEL-5 melanoma came out at 3.08 µM; in the test on NCI-H522 lung it was 3.67 µM; with HCC-2998 colon, 2.98 µM; in the test with OVCAR-5 ovarian, 3.93 µM.
